Laboratory results taken from patent US20230241155A1, “METHODS AND MEANS FOR MODIFYING HEMODYNAMICS IN INFECTIONS” (Biotempt B.V., priority 2020, published 2023).
“Also recorded” adds a separate entry of the source. Like-named read-outs stand apart in the source and are kept apart here. Blank lines part the entries; values can stand above or below the molecule they belong to. Peptide text beside a SMILES is read from it.

Key:
[1] = Adverse events (AEs) in the EASI-study (phase II, CABG patients); assay type: in vivo, human
Description: A prospective, randomized, double-blind, placebo-controlled study was performed in which 180 elective patients undergoing on-pump coronary artery bypass grafting were enrolled. Patients were randomized in a 1:1 ratio and received either EA-230, 90 mg/kg/hour, or a placebo. These were infused at the start of the surgical procedure until the end of the use of the cardiopulmonary bypass. The main focus in this first-in-patient study was on safety and tolerability of EA-230. The primary efficacy endpoint was the modulation of the inflammatory response by EA-230. A key secondary endpoint was the effect of EA-230 on renal function.
The present study was a single-center, prospective, double-blind, placebo-controlled, randomized, single-dose phase II study. It has an adaptive design to evaluate the safety and immunomodulatory effects of EA-230 in patients undergoing for coronary artery bypass grafting (CABG). 180 eligible patients were included and were randomized to receive either active or placebo treatment in a 1:1 ratio. This was a first-in-patient safety and tolerability study, of which the primary efficacy objective was to assess the immunomodulatory effects of EA-230. The key-secondary efficacy endpoint was the effect of EA-230 on renal function. This study was described in accordance with the Standard Protocol Items: Recommendations for Interventional Trial (SPIRIT) guidelines, and registered at clinicaltrials.gov under number NCT03145220.
Intravenous infusion of EA-230, 90 mg/kg/hour, or placebo, was initiated at the moment of first surgical incision using an automated infusion pump. Infusion rate was set at 250 mL/hour, and infusion was continued until cessation of the CPB, or after 4 hours of continuous infusion, whichever comes first.
All AEs were judged by the investigators with regard to severity (“mild, moderate, or severe”) according to Common Terminology Criteria for Adverse Events guidelines 4.030 and their perceived relation to the study drug (“definitely, probably, possibly, or unrelated/unlikely to be related”). SAEs or SUSARs include death, life-threatening disease, persistent and/or significant disability and/or incapacity, and hospitalization and/or prolongation of inpatient hospitalization.

[2] = Solubility / aggregation screen of AQGV peptide salts; details: for aggregation in aqueous solution: in relation to peptide-acetate aggregation
Description: FIG. 7: Overview of solubility experiments with results in Table 1.

Molecule: CC(C)[C@H](NC(=O)CNC(=O)[C@H](CCC(N)=O)NC(=O)[C@H](C)N)C(=O)O [EA-230, AQGV] (H-AQGV-OH)
AE of mild intensity, % of patients ([1]; EA-230 group N = 91): (83.5) %
AE of mild intensity, e = Number of events ([1]; EA-230 group N = 91): 188
AE of mild intensity, n = Number of patients experiencing the event ([1]; EA-230 group N = 91): 76
AE of moderate intensity, % of patients ([1]; EA-230 group N = 91): (24.2) %
AE of moderate intensity, e = Number of events ([1]; EA-230 group N = 91): 23
AE of moderate intensity, n = Number of patients experiencing the event ([1]; EA-230 group N = 91): 22
AE of severe intensity, % of patients ([1]; EA-230 group N = 91): (5.5) %
AE of severe intensity, e = Number of events ([1]; EA-230 group N = 91): 6
AE of severe intensity, n = Number of patients experiencing the event ([1]; EA-230 group N = 91): 5
Anemia, % of patients ([1]; EA-230 group N = 91): (5.5) %
Anemia, e = Number of events ([1]; EA-230 group N = 91): 5
Anemia, n = Number of patients experiencing the event ([1]; EA-230 group N = 91): 5
Any AE, % of patients ([1]; EA-230 group N = 91): (85.7) %
Any AE, n = Number of patients experiencing the event ([1]; EA-230 group N = 91): 78
Any SAE, % of patients ([1]; EA-230 group N = 91): (13.2) %
Any SAE, e = Number of events ([1]; EA-230 group N = 91): 23
Any SAE, n = Number of patients experiencing the event ([1]; EA-230 group N = 91): 12
Any SUSAR, % of patients ([1]; EA-230 group N = 91): (0) %
Any SUSAR, e = Number of events ([1]; EA-230 group N = 91): 0
Any SUSAR, n = Number of patients experiencing the event ([1]; EA-230 group N = 91): 0
Blood and lymphatic system disorders Overall, % of patients ([1]; EA-230 group N = 91): (5.5) %
Blood and lymphatic system disorders Overall, e = Number of events ([1]; EA-230 group N = 91): 6
Blood and lymphatic system disorders Overall, n = Number of patients experiencing the event ([1]; EA-230 group N = 91): 5
Delirium, % of patients ([1]; EA-230 group N = 91): (5.5) %
Delirium, e = Number of events ([1]; EA-230 group N = 91): 5
Delirium, n = Number of patients experiencing the event ([1]; EA-230 group N = 91): 5
Fluid retention, % of patients ([1]; EA-230 group N = 91): (2.2) %
Fluid retention, e = Number of events ([1]; EA-230 group N = 91): 2
Fluid retention, n = Number of patients experiencing the event ([1]; EA-230 group N = 91): 2
Gastrointestinal disorders Overall, % of patients ([1]; EA-230 group N = 91): (23.1) %
Gastrointestinal disorders Overall, e = Number of events ([1]; EA-230 group N = 91): 27
Gastrointestinal disorders Overall, n = Number of patients experiencing the event ([1]; EA-230 group N = 91): 21
Hemorrhagic diathesis, % of patients ([1]; EA-230 group N = 91): (1.1) %
Hemorrhagic diathesis, e = Number of events ([1]; EA-230 group N = 91): 1
Hemorrhagic diathesis, n = Number of patients experiencing the event ([1]; EA-230 group N = 91): 1
Infections and infestations Overall, % of patients ([1]; EA-230 group N = 91): (14.3) %
Infections and infestations Overall, e = Number of events ([1]; EA-230 group N = 91): 15
Infections and infestations Overall, n = Number of patients experiencing the event ([1]; EA-230 group N = 91): 13
Metabolism and nutrition disorders Overall, % of patients ([1]; EA-230 group N = 91): (11) %
Metabolism and nutrition disorders Overall, e = Number of events ([1]; EA-230 group N = 91): 10
Metabolism and nutrition disorders Overall, n = Number of patients experiencing the event ([1]; EA-230 group N = 91): 10
Nausea, % of patients ([1]; EA-230 group N = 91): (16.5) %
Nausea, e = Number of events ([1]; EA-230 group N = 91): 15
Nausea, n = Number of patients experiencing the event ([1]; EA-230 group N = 91): 15
Psychiatric disorders Overall, % of patients ([1]; EA-230 group N = 91): (9.9) %
Psychiatric disorders Overall, e = Number of events ([1]; EA-230 group N = 91): 9
Psychiatric disorders Overall, n = Number of patients experiencing the event ([1]; EA-230 group N = 91): 9
Renal and urinary disorders Overall, % of patients ([1]; EA-230 group N = 91): (4.4) %
Renal and urinary disorders Overall, e = Number of events ([1]; EA-230 group N = 91): 4
Renal and urinary disorders Overall, n = Number of patients experiencing the event ([1]; EA-230 group N = 91): 4
safety and tolerability ([1]; clinical trials / throughout surgery): safe and well tolerated; also recorded: found to be safe

Molecule: Nc1ncnc2c1ncn2[C@@H]1O[C@H](COP(=O)(O)O)[C@@H](O)[C@H]1O [adenosine-monophosphate]
solubility (aggregation point) [2]: did not provide solubility
aggregation in aqueous solution [2]: aggravated aggregation

Molecule: AQGV-citrate
behaviour of highly concentrated solution [2]: does not crystallize or aggregate but tend to form a highly viscous solution
solubility (aggregation point) [2]: Higher solubility
aggregation in aqueous solution [2]: (strongly) reduced aggregation

Second part, the molecule after the results:

solubility (aggregation point) [2]: did not provide solubility
aggregation in aqueous solution [2]: aggravated aggregation
Molecule: Nc1ncnc2c1ncn2[C@@H]1O[C@H](CO)[C@@H](O)[C@H]1O [adenosine]

aggregation in aqueous solution [2]: aggravated aggregation
solubility (aggregation point) ([2]; solubility in 0.9% NaCl, compared to AQGV-Ac): lower solubility
Molecule: O=C(O)/C=C\C(=O)O [maleic acid]
